Measurements taken from article PMC9002265, “A New Series of Strigolactone Analogs Derived From Cinnamic Acids as Germination Inducers for Root Parasitic Plants” (Frontiers in Plant Science, 2022).
Where two headings read alike, the source gives them in different places.

Experiments:
Orobanche minor seeds = test: Germination assay, Orobanche minor seeds; format: in vivo; conditions: O. minor seeds; result in words
Description: Orobanche minor seeds were washed with 70% EtOH, and then sonicated for 4 min in 1% sodium hypochlorite solution containing 0.2% Tween-20. The seeds were then washed 10 times with sterile water and suspended in 0.1% agar solution. The seeds were loaded onto 5-mm glass fiber filter disks (20–70 seeds/disk) and were conditioned at 23°C for 15 days. Each disk was transferred into a 96-well plate. A 30 μl aliquot of test chemical solution was added to the well. For the germination assay, the chemical solutions were prepared by 1,000 times dilution from each acetone stock solution with water (final acetone concentration was 0.1%). GR24 solution (0.1% acetone) and sterile water (0.1% acetone) was used as positive and negative control, respectively. The 96 well plates were incubated for 5 days at 23°C and the number of total seeds and germinated seeds was counted.

ShHTL7 [1] = molecular target: T1, ShHTL7 (Striga hermonthica, UniProt A0A0M3PNA2); test: YLG assay (inhibition of YLG hydrolysis) with recombinant ShHTL7; format: biochemical
T1 sequence (A0A0M3PNA2 1-271): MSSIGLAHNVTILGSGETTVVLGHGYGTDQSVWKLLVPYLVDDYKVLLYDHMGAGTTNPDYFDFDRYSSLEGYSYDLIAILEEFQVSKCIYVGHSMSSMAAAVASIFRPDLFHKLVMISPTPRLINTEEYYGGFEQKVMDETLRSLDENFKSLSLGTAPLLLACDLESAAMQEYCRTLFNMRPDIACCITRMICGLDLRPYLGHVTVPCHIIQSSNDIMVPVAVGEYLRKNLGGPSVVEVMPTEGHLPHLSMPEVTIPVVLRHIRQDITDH
Description: (§1) The ORF fragment of ShHTL6 and ShHTL7 was synthesized using IDT gBlock service. The PCR amplified ShHTL6 and ShHTL7 fragment was digested with Nco I and EcoR I, and the digested product was introduced into a modified pET28 vector with an N-terminal His8 tag. Escherichia coli BL21(DE3) was used for protein expression. The overnight culture (12 ml) was added to a fresh LB medium (1.2 L) containing kanamycin (50 mg/L) at 37°C. After OD600 reached 0.8, 0.1 mM IPTG was added and the cell was further incubated at 16°C for 21 h. The culture medium was centrifuged at 3700 g and the pellet was stored at −20°C until use. The pellet was resuspended and sonicated in a lysis buffer (50 mM Tris buffer (pH 8.0) containing 500 mM NaCl, 10 mM 2-mercaptoethanol, and 10% glycerol). The supernatant was purified by Ni Sepharose TM 6 Fast Flow (500 μl, Cytiva). After washing with the washing buffer (50 mM Tris buffer (pH 8.0) containing 500 mM NaCl and 20 mM imidazole), The bound protein was eluted with elution buffer (50 mM Tris buffer (pH 8.0) containing 500 mM NaCl and 200 mM imidazole). The eluate was concentrated using VIVASPIN Turbo 15 (Sartorius), and the concentration was adjusted to 5 mg/ml. The purified protein was aliquoted to the appropriate volume, immediately frozen in liquid nitrogen, and stored at −80°C until use.
(§2) After YLG was incubated with recombinant ShHTL6 or ShHTL7 for 1 h, the fluorescence was measured by spectraMax i5 (Molecular Devices) at excitation by 480 nm and detection by 520 nm. IC50 values were calculated using the online tool Quest GraphTM IC50 Calculator (AAT Bioquest, Inc., United States; https://www.aatbio.com/tools/ ic50-calculator).

ShHTL6 = molecular target: T2, ShHTL6 (Striga hermonthica, UniProt A0A0M4AUV4); test: YLG assay (inhibition of YLG hydrolysis) with recombinant ShHTL6; format: biochemical
T2 sequence (A0A0M4AUV4 1-271): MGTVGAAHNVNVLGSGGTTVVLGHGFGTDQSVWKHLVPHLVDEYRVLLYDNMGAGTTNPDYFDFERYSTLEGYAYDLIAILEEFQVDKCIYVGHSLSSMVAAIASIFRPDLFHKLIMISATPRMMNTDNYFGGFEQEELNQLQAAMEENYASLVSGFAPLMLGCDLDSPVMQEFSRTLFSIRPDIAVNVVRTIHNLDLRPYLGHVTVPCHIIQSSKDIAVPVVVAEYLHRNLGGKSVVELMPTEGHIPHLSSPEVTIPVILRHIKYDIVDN
Description: as §1, §2

ShHTL7 [2] = molecular target: T1, ShHTL7; test: Hydrolysis assay with recombinant ShHTL7; format: biochemical; conditions: 10 μM substrate, 30°C, 60 min
Description: as §1
(§3) Hydrolysis assays were carried out at 30°C for 60 min in 100 μl of a reaction buffer containing 0.13 pmol recombinant ShHTL7 or AtD14, 10 μM of substrate in 50 mM Phosphate-Na buffer (pH 7.0) containing 2% acetone. The enzyme reaction was stopped by addition of 100 μl of acetonitrile containing 1-naphtaleneacetic acid (NAA; 0.5 ng/μl) as an internal standard. After centrifuged at 13,000 rpm for 5 min, each sample was subjected to LC–MS/MS analysis equipped with reverse-phase column (CORTECS UPLC Phenyl 1.6 μm, ϕ2.1 × 75 mm; Waters). The concentration of remaining substrate and reaction product was calculated by using NAA as an internal standard. Detailed information about the analytical condition is described in Supplementary Table 1.

AtD14 = molecular target: T3, AtD14 (Arabidopsis thaliana, UniProt Q9SQR3); test: Hydrolysis assay with recombinant AtD14; format: biochemical; conditions: 10 μM substrate, 30°C, 60 min
T3 construct: The cDNA of AtD14 was introduced into pMALHis vector; MBP; His6; made in house; host or cells: E. coli BL21 (DE3)
T3 sequence (Q9SQR3 1-267): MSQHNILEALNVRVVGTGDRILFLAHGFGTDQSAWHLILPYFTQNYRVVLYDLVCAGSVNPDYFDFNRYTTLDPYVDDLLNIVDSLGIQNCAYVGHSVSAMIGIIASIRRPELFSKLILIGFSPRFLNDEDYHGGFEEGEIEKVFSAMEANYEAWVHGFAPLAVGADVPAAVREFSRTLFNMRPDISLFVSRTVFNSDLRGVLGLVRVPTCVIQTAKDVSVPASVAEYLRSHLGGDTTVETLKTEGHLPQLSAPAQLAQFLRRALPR
Description: The cDNA of AtD14 was introduced into pMALHis vector that has both MBP-tag and His6-tag. The vector was transformed in to E. coli BL21 (DE3) and the cell was precultured in LB medium containing 50 μg/ml ampicillin. Overnight cultures (10 ml) were added to fresh LB medium (1 L) containing 50 μg/ml ampicillin and it was cultured at 37°C. After OD600 reached to 0.8, the cultures were cooled at 16°C for 1 h, and then 0.1 mM IPTG was added. The culture was further incubated at 16°C for 20 h. The culture medium was centrifuged at 3,700 g and the pellet was stored at −20°C until use. The pellet was resuspended and sonicated in lysis buffer (50 mM Tris buffer (pH 8.0) containing 500 mM NaCl, 10 mM 2-mercaptoethanol, and 10% glycerol). The supernatant was purified by Ni Sepharose TM 6 Fast Flow (500 μl, Cytiva) After washing with the washing buffer (50 mM Tris buffer (pH 8.0) containing 500 mM NaCl and 20 mM imidazole), The bound protein was eluted with elution buffer (50 mM Tris buffer (pH 8.0) containing 500 mM NaCl and 200 mM imidazole). The eluate was concentrated using VIVASPIN Turbo 15 (Sartorius), and the concentration was adjusted to 5 mg/ml. The purified protein was aliquoted to the appropriate volume, immediately frozen in liquid nitrogen, and stored at −80°C until use.
as §3

[3] = Time course monitoring of degradation in hydroponic culture; format: physicochemical; conditions: 1 μM, within 1 week, pH 5.7, LC-MS/MS
Description: t-CASL1, c-CASL1, PPASL, and GR5 were separately added to 15 ml tubes containing hydroponic culture. The final concentration of the test compounds is 1 μM and acetone was adjusted to 0.01% (v/v). These solutions were incubated under the same conditions as branching assay. After incubation for 0, 5, 24 72, or 168 h, 495 μl of hydroponic culture containing test compounds was collected and 5 μl of NAA solution (10 μM) was added as an internal standard. The solution was extracted with ethyl acetate. The ethyl acetate phase was dried up under the nitrogen gas and dissolved in acetonitrile. These samples were subjected to LC–MS/MS analysis equipped with reverse-phase column (CORTECS UPLC Phenyl 1.6 μm, ϕ2.1 × 75 mm; Waters). Each peak area of test chemicals and internal standard was calculated, and the remaining percentage of teste chemicals was calculated. At the same time, the degradation products of test compounds (CA or PPA) were also analyzed. Detailed information about the analytical condition was described in Supplementary Table 1.

[4] = test system: Arabidopsis wild type Col-0; test: Growth promoting assay and root phenotypic analysis; format: in vivo; conditions: 1 μM on agar plate
Description: Sterilized seeds of the Arabidopsis wild type Col-0 were put on the plate containing 1% (w/v) agar-solidified 0.5× Murashige and Skoog (MS) medium, 1% sucrose. Test compounds were dissolved in the medium at 1 μM by 10,000 times dilution from each acetone stock (final concentration of acetone was 0.01% (v/v)). To evaluate the growth promoting effect, these seedlings were cultured horizontally at 22°C for 20 days under LED light (105 μmol/m^2/s) with a 16 h light/8 h dark photoperiod. After the cultivation, flesh weight of shoot was measured. For root phenotypic analysis, these seedlings were cultured verticaly at 22°C for 11 days under LED light (105 μmol/m^2/s) with a 16 h light/8 h dark photoperiod. After the cultivation, root length was measured by using ImageJ software and number of lateral roots was counted by using a microscope.

Striga hermonthica seeds = test system: Striga hermonthica seeds; parameters: method as in Uraguchi et al., 2018; conditions: ref Uraguchi et al., 2018; cited from earlier work
[5] = 1 h incubation, read-out: IC50 in YLG assay
[6] = read-out: IC50 in YLG assay, 1 h incubation

CC1=CC(OC(=O)/C=C2\CCCc3ccccc32)OC1=O (stereo not shown) [t-tetCASL]
germination-inducing activity compared with the corresponding non-fixed (unfixed) analog (Orobanche minor seeds): much stronger activity
IC50 (ShHTL7 [1]; [5]): 3850 nM

CC1=CC(OC(=O)/C=C\c2ccc(Cl)cc2)OC1=O (stereo not shown) [c-CASL9]
IC50 (ShHTL7 [1]; [5]): 340 nM

CC1=CC(OC(=O)/C=C\c2ccc(O)cc2)OC1=O (stereo not shown) [c-CASL3]
IC50 (ShHTL7 [1]; [5]): 3430 nM

CC1=CC(OC(=O)/C=C\c2ccc(C(F)(F)F)cc2)OC1=O (stereo not shown) [c-CASL10]
IC50 (ShHTL7 [1]; [5]): 220 nM

COc1ccc(/C=C\C(=O)OC2C=C(C)C(=O)O2)cc1 (stereo not shown) [c-CASL4]
IC50 (ShHTL7 [1]; [5]): 660 nM

CC1=CC(OC(=O)/C=C/c2ccc(C(F)(F)F)cc2)OC1=O (stereo not shown) [t-CASL10]
IC50 (ShHTL7 [1]; [5]): 340 nM

CC1=CC(OC(=O)/C=C\c2ccc(Br)cc2)OC1=O (stereo not shown) [c-CASL8]
IC50 (ShHTL7 [1]; [5]): 360 nM

CC1=CC(OC(=O)/C=C/c2ccc(Cl)cc2)OC1=O (stereo not shown) [t-CASL9]
IC50 (ShHTL7 [1]; [5]): 830 nM

CC1=CC(OC(=O)/C=C2/CCc3ccccc32)OC1=O (stereo not shown) [c-indCASL]
IC50 (ShHTL7 [1]; [5]): 2010 nM

CC1=CC(OC(=O)CCc2ccccc2)OC1=O (stereo not shown) [PPASL]
IC50 (ShHTL6): 2240 nM
hydrolysis by HTL7 (ShHTL7 [2]): can hydrolyze
hydrolysis by AtD14 (AtD14): can hydrolyze
germination-inducing activity compared with c-CASL1 or t-CASL1 (Orobanche minor seeds): much weaker activity
IC50 (ShHTL7 [1]; [5]): 1460 nM

CC1=CC(OC(=O)/C=C/c2ccccc2)OC1=O (stereo not shown) [t-CASL1]
IC50 (ShHTL6): 1850 nM
loss (non-enzymatic degradation) in hydroponic culture medium [3]: ~40%
hydrolysis by HTL7 (ShHTL7 [2]): can hydrolyze
hydrolysis by AtD14 (AtD14): can hydrolyze
IC50 (ShHTL7 [1]; [5]): 2050 nM

CC1=CC(OC(=O)/C=C/c2ccc(F)cc2)OC1=O (stereo not shown) [t-CASL7]
IC50 (ShHTL7 [1]; [5]): 1550 nM

CC1=CC(OC(=O)/C=C\c2ccc(F)cc2)OC1=O (stereo not shown) [c-CASL7]
IC50 (ShHTL7 [1]; [5]): 1140 nM

CC1=CC(OC(=O)/C=C\c2ccc(C)cc2)OC1=O (stereo not shown) [c-CASL2]
IC50 (ShHTL7 [1]; [5]): 680 nM

CCOc1ccc(/C=C/C(=O)OC2C=C(C)C(=O)O2)cc1 (stereo not shown) [t-CASL5]
IC50 (ShHTL7 [1]; [6]): 3970 nM

O=C(O)/C=C\c1ccccc1 [cis-CA, cis-cinnamic acid, reference compound]
lateral root density ([4]; 11 days): increased
primary root length ([4]; 11 days): inhibited
shoot fresh weight ([4]; 20 days): increase

CC1=CC(OC(=O)/C=C\c2ccc([N+](=O)[O-])cc2)OC1=O (stereo not shown) [c-CASL6]
IC50 (ShHTL7 [1]; [5]): 250 nM

CC1=CC(OC(=O)/C=C/c2ccc(C)cc2)OC1=O (stereo not shown) [t-CASL2]
IC50 (ShHTL7 [1]; [5]): 1410 nM

CCCCOc1ccc(S(=O)(=O)N2CCN(C(=O)OC3C=C(C)C(=O)O3)CC2)cc1 (stereo not shown) [SPL7, sphynolactone-7]
concentration inducing S. hermonthica germination (Striga hermonthica seeds): fM concentrations

CCOc1ccc(/C=C\C(=O)OC2C=C(C)C(=O)O2)cc1 (stereo not shown) [c-CASL5]
IC50 (ShHTL7 [1]; [6]): 310 nM

CC1=CC(OC(=O)/C=C2\CCc3ccccc32)OC1=O (stereo not shown) [t-indCASL]
germination-inducing activity compared with the corresponding non-fixed (unfixed) analog (Orobanche minor seeds): much stronger activity
IC50 (ShHTL7 [1]; [5]): 3070 nM

COc1ccc(/C=C/C(=O)OC2C=C(C)C(=O)O2)cc1 (stereo not shown) [t-CASL4]
IC50 (ShHTL7 [1]; [5]): 2210 nM

CC1=CC(OC(=O)/C=C/c2ccc(O)cc2)OC1=O (stereo not shown) [t-CASL3]
IC50 (ShHTL7 [1]; [5]): > 10000 nM

CC1=CC(OC(=O)/C=C/c2ccc(Br)cc2)OC1=O (stereo not shown) [t-CASL8]
IC50 (ShHTL7 [1]; [5]): 700 nM

CC1=C[C@H](O/C=C2/C(=O)O[C@@H]3c4ccccc4C[C@H]23)OC1=O (relative stereo) [GR24, reference compound]
IC50 (ShHTL6; ShHTL6, YLG hydrolysis, 1 h incubation, read-out: IC50 in YLG assay): 2350 nM
IC50 (ShHTL7 [1]; [5]): 170 nM

CC1=CC(OC(=O)/C=C/c2ccc([N+](=O)[O-])cc2)OC1=O (stereo not shown) [t-CASL6]
IC50 (ShHTL7 [1]; [5]): 710 nM

CC1=CC(OC(=O)/C=C2/CCCc3ccccc32)OC1=O (stereo not shown) [c-tetCASL]
IC50 (ShHTL7 [1]; [5]): 4610 nM
